Test results taken from patent US9724341B2 (priority 2013, dated 2017).
Where two headings read alike, the source gives them in different places.

Tests used:
[1] = for Nicotine Mass Loss: isothermal TGA, API powder
Method: A typical calorimetric scan of nicotine m-salicylate powder is illustrated in FIG. 2. […] Thermogravimetric analysis on the powder was run in both scanning and isothermal modes. […] Isothermal data were also obtained on the API powder (˜10 mg per run) at 40° C., 50° C., and 60° C. for periods of at least 3 days.

[2] = for mechanical integrity of the film: dropped 5 times
Method: Fragility of the spray coating was tested using two foil arrays coated with ˜200 μg of nicotine per foil (˜11 μg nicotine/mm^2, which is about a 21 μm thick film of nicotine m-salicylate). Five foils from each array were assayed for pre-drop coated dose. Each foil array was then placed into a dose cartridge, sealed into a plastic tube, and dropped 3 times onto the floor from a height of about 1 meter. Five additional foils from each array were assayed for the post-drop coated dose.
In a follow-up study, we studied the effect of thickness on the mechanical integrity of the film. In this experiment, three foils from an array were assayed for pre-drop coated dose. Each foil array was then placed into a dose cartridge, sealed into a plastic tube, and dropped 5 times onto the floor from a height of about 1 meter. Three foils from each array were then assayed for the post-drop coated dose.

[3] = for time coated film relatively stable (not more than 20% nicotine loss): 40 μg/foil; for time coated film stable (nicotine): 170 μg/foil
Method: Loss of nicotine and m-salicylic acid due to volatility and hygroscopic effects: Nicotine salts can suffer volatility issues and can also be quite hygroscopic. For instance, nicotine sulfate absorbs water so readily that it is shipped in aqueous solution. Hygroscopic effects on nicotine m-salicylate were evaluated for 2 doses at two conditions, 22° C./44% RH (ambient condition) and 40° C./75% RH. According to the Antoine equation for water, 40° C./75% RH translates to supersaturated humidity at 22° C. Each coated EMD array was placed flat on a Petri dish (without a cover) which was then stored at either 22° C./44% RH or 40° C./75% RH. At each time point, at least 4 random individual foils were removed from the array and each foil was extracted with 1.5 ml of 50/50 ACN/water for coated dose determination.

[4] = remark: listed apart in the source
Method: Solubility limit tests were performed on nicotine m-salicylate in a number of relevant solvents. […] The approximate saturation limits are in units of mg nicotine equivalent per mL of solvent. […] However, the analytical methods developed for detecting impurities related to the m-salicylate use 236 nm as the detection wavelength. Methanol has high absorbance in this range and can therefore interfere with the analytes of interest. Acetonitrile, on the other hand, has low background absorbance in this wavelength range and is therefore ideal for use.

[5] = remark: listed apart in the source
Method: The innate volatility of free base nicotine can be greatly altered once bound to a counterion acid. The stability of nicotine in the resulting salt form can vary widely, ultimately impacting its desirability for commercial consideration. Certain packaging configurations can mitigate nicotine loss. […] Decreasing the equilibrium vapor pressure point is believed to minimize the total nicotine loss. For this study, different packaging configurations were tested to investigate the following variables: container material, presence of adjuncts, and total volume of space. Container materials consisted of either glass or multi-laminate foil pouches. Glass is impermeable to vapors. Once the total volume of the glass container is flooded with nicotine vapors and any surface adsorption occurs, equilibrium is reached and no additional loss of nicotine should be observed. Though foil is also impermeable, the inner surface of the pouch is lined with an ethylene acid copolymer that promotes vapor absorbency. The copolymer should lead to greater nicotine loss within a pouch than a glass vial of the same total volume.
The presence of adjuncts, such as a drug cartridge housing, is a likely scenario for the final commercial product. The composition of the adjunct will affect equilibrium vapor pressure point if it preferentially absorbs vapors. For this study, a polycarbonate adjunct with a surface area of ˜150 cm^2 was introduced to the glass vial and pouch scenarios. Finally, the total packaging volume was examined. The smaller the available space, the sooner the equilibrium pressure can be reached. Open containers represent the worst case scenario, as the infinite space means that the equilibrium pressure can never be achieved. To set up the experiment, screening foils were spray coated with a 1×2 cm footprint of nicotine m-salicylate to a thickness of ˜11 ug nicotine/mm^2 (equivalent to a coated dose of 200 ug nicotine equivalent on an EMD foil). After a few random screening foils were assayed for initial time point coated dose, the remaining foils were placed in one of the following containers: • Capped glass vial (˜40 mL volume) • Heat-sealed standard pouch (˜133 mm×87 mm) • Heat-sealed standard pouch, stored with polycarbonate material (˜150 cm^2 surface area) • Uncapped glass vial (same vial as first bullet) • Binder-clipped (semi-sealed) standard pouch (˜133 mm×87 mm) • Capped glass vial, stored with polycarbonate • Heat-sealed half pouch (˜69 mm×87 mm) • Uncovered Petri dish
The packaged screening foils were stored at either 40° C. (oven) or 25° C. (laboratory cabinet), without relative humidity control. At pre-determined time points, three foils from each condition were washed with 5 mL of 50% v/v acetonitrile in water and analyzed on the HPLC for nicotine and m-salicylate content.

[6] = sensitive LC method for phenol
[7] = 25° C.; cited from earlier work
[8] = film thickness 29 μm, Post-drop (5 drops, about 1 meter)
[9] = film thickness 37 μm, Post-drop (5 drops, about 1 meter)

What does the source list for CC(C)(C(=O)O)C(=O)O.CC(C)(C(=O)O)C(=O)O.CN1CCCC1c1cccnc1 (stereo not drawn) [Nicotine bidimethylmalonate]?
Nicotine Mass Loss ([1]; 40° C.): 4 µg/day; Nicotine Mass Loss ([1]; 50° C.): 14 µg/day; Nicotine Mass Loss ([1]; 60° C.): 53 µg/day

With CN1CCCC1c1cccnc1.O=C(O)C(O)C(O)C(=O)O (stereo not drawn) [Nicotine bitartrate] as the compound, how does the “Nicotine Mass Loss” value ([1]; 40° C.) read?
Its value is 1 µg/day.

And the “Nicotine Mass Loss” value ([1]; 50° C.)?
The value was 3 µg/day.

What about the “Nicotine Mass Loss” value ([1]; 60° C.) of the same compound?
The value was 10 µg/day.

Which MMAD (NGI cups coated with 1% (w/v) benzoic acid) does the source give for CN1CCCC1c1cccnc1.O=C(O)c1cccc(O)c1 (stereo not drawn) [Nicotine m-salicylate, nicotine meta-salicylate] here?
Its MMAD is 0.9 um.

And the MMAD (bare NGI cups, 30 LPM, average)?
Its MMAD is 0.7 μm.

And the Particle size (overall conclusion)?
The Particle size was “about 1 μm”.

And the “Nicotine Mass Loss” value ([1]; 40° C.)?
Its value is 5 µg/day.

What about the “Nicotine Mass Loss” value ([1]; 50° C.) of the same compound?
Its value is 19 µg/day.

What about the “Nicotine Mass Loss” value ([1]; 60° C.) of the same compound?
Its value is 107 µg/day.

And the “residual after scanning TGA” value ([1]; room temperature to 500° C., pan weighed before and after)?
Its value is about 0.2%.

What about the “nicotine mass loss, times less than nicotine ortho-salicylate” value ([1]; storage temperatures between 40-60° C.) of the same compound?
Its value is 2-3 ×.

What about the “mechanical integrity of the film” value ([2]; 350 μg nicotine (~37 μm thick)) of the same compound?
The value was “begin to show signs of fragility”.

And the “M-salicylate coated dose (average ± 1 standard deviation)” value [2, 8]?
The value was 244 ± 3.

And the “Nicotine coated dose (average ± 1 standard deviation)” value [2, 8]?
The value was 277 ± 3.

And the “M-salicylate coated dose (average ± 1 standard deviation)” value ([2]; film thickness 29 μm, Pre-drop)?
Its value is 247 ± 1.

What about the “Nicotine coated dose (average ± 1 standard deviation)” value ([2]; film thickness 29 μm, Pre-drop) of the same compound?
The value was 275 ± 3.

And the “M-salicylate coated dose (average ± 1 standard deviation)” value [2, 9]?
Its value is 299 ± 7.

And the “Nicotine coated dose (average ± 1 standard deviation)” value [2, 9]?
The value was 335 ± 6.

What about the “M-salicylate coated dose (average ± 1 standard deviation)” value ([2]; film thickness 37 μm, Pre-drop) of the same compound?
Its value is 311 ± 0.

And the “Nicotine coated dose (average ± 1 standard deviation)” value ([2]; film thickness 37 μm, Pre-drop)?
Its value is 347 ± 6.

What about the “coated dose post-drop vs pre-drop, average of two arrays” value ([2]; ~200 μg nicotine per foil, dropped 3 times) of the same compound?
The value was about 0.8%.

What about the “mechanical integrity of the film” value ([2]; ~29 μm thickness) of the same compound?
Its value is “not lost”.

What about the “time coated film relatively stable (not more than 20% nicotine loss)” value ([3]; 22° C./60% RH) of the same compound?
The value was “up to 4 weeks”.

What about the “time coated film relatively stable (not more than 20% nicotine loss)” value ([3]; 35° C./80% RH) of the same compound?
The value was at most 5 days.

What about the “time coated film relatively stable (not more than 20% nicotine loss)” value ([3]; 60° C./35% RH) of the same compound?
Its value is “up to 4 hours”.

What about the “time coated film stable (nicotine)” value ([3]; 22° C./60% RH) of the same compound?
The value was at least 4 weeks.

What about the “time coated film stable (nicotine)” value ([3]; 25° C./90% RH) of the same compound?
Its value is at least 13 days.

What about the “time coated film stable (nicotine)” value ([3]; 35° C./80% RH) of the same compound?
The value was at least 7 days.

What about the “time coated film stable (nicotine)” value ([3]; 60° C./35% RH) of the same compound?
Its value is “at least 8 hours”.

And the “M-salicylic acid stability of coated films” value ([3]; all conditions except the 40 μg/foil dose at 25° C./90% RH)?
Its value is “relatively stable”.

What about the Saturation point ([4]; 50/50 acetonitrile/water) of the same compound?
Its Saturation point is 64 mg nicotine/mL.

And the Saturation point ([4]; 80/20 methanol/water)?
The Saturation point was 118 mg nicotine/mL.

And the Saturation point ([4]; Acetonitrile)?
Its Saturation point is 9 mg nicotine/mL.

And the Saturation point ([4]; Ethanol)?
Its Saturation point is 33 mg nicotine/mL.

And the Saturation point ([4]; Methanol)?
The Saturation point was 103 mg nicotine/mL.

And the Saturation point ([4]; Water)?
Its Saturation point is 58 mg nicotine/mL.

And the Saturation point ([4]; acetone)?
The Saturation point was <<10 mg nicotine/mL.

And the solubility ([4]; acetone)?
Its solubility is under 10000 µg/mL.

What about the solubility ([4]; pure acetonitrile) of the same compound?
Its solubility is about 10000 µg/mL.

What about the “loss of nicotine content” value ([5]; 25° C., Petri dish, 18 weeks) of the same compound?
Its value is 13%.

And the m-salicylic acid content ([5]; 25° C., all eight conditions)?
The m-salicylic acid content was “stable”.

What about the Nicotine loss ([5]; 25° C., up to 18 weeks, all conditions except Petri dish) of the same compound?
Its Nicotine loss is ≤ 7 % of initial.

And the m-salicylate content ([5]; 40° C., all other configurations, 16 weeks)?
The m-salicylate content was 100-110 % of initial.

What about the “loss of nicotine content” value ([5]; 40° C., all other stabilized (sealed) conditions) of the same compound?
The value was at most 10%.

And the “loss of nicotine content” value ([5]; 40° C., sealed standard sized pouches containing polycarbonate material)?
Its value is about 20%.

What about the m-salicylate content ([5]; Petri dish, four weeks at 40° C.) of the same compound?
The m-salicylate content was ~80 % of initial.

And the “maximum content of phenol in aerosols (estimated from method sensitivity; phenol not observed)” value [6]?
The value was at most 0.013%.

What does the source list for CN1CCCC1c1cccnc1.O=C(O)/C=C/C(=O)O (stereo not drawn) [Nicotine monofumarate]?
Nicotine Mass Loss ([1]; 40° C.): 7 µg/day; Nicotine Mass Loss ([1]; 50° C.): 39 µg/day; Nicotine Mass Loss ([1]; 60° C.): 219 µg/day

Which “Nicotine Mass Loss” value ([1]; 40° C.) does the source give for CN1CCC[C@H]1c1cccnc1.O=C(O)c1ccccc1O [Nicotine o-salicylate, nicotine ortho-salicylate] here?
Its value is 15 µg/day.

What about the “Nicotine Mass Loss” value ([1]; 50° C.) of the same compound?
The value was 48 µg/day.

And the “Nicotine Mass Loss” value ([1]; 60° C.)?
The value was 178 µg/day.

Which vapor pressure [7] does the source give for CN1CCCC1c1cccnc1 (stereo not drawn) [Nicotine] here?
Its vapor pressure is 0.0425 mmHg.

Which “Nicotine Mass Loss” value ([1]; 40° C.) does the source give for Nicotine bifumarate here?
Its value is 12 µg/day.

And the “Nicotine Mass Loss” value ([1]; 50° C.)?
The value was 66 µg/day.

What about the “Nicotine Mass Loss” value ([1]; 60° C.) of the same compound?
The value was 305 µg/day.
